biological target: T1, ERα protein (HiBiT-tagged) in ESR1_HiBiT KI MCF7 cells (Homo sapiens, UniProt P03372); assay: Nano Glo HiBiT Lytic Degradation Assay; type: cell-based; conditions: 6 hours with compound, 14-point dose response 1:3, bell-shape curve fit, half-maximal effect of first Hill model, read-out: MCF7 ESR1 HiBiT - (DC50)
T1 sequence (P03372 1-595): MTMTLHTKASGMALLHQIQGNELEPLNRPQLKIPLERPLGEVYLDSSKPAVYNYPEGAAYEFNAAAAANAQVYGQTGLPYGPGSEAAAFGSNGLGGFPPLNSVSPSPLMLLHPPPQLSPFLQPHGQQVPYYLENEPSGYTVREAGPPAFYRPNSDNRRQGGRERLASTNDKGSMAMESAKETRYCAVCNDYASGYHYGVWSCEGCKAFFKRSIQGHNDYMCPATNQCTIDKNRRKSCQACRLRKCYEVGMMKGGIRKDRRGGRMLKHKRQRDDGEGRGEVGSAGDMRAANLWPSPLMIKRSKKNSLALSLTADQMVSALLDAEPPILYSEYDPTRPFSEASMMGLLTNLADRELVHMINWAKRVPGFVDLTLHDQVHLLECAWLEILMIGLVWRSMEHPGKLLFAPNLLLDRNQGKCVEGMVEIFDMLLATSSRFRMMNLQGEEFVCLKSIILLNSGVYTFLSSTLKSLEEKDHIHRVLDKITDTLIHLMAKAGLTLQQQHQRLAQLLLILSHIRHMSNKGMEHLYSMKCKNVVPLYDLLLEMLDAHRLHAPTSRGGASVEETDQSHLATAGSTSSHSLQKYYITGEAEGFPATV
Summary of the method: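 ESR1_HiBiT knock-in MCF7 cells were seeded 24 h before treatment, then exposed to compounds for 6 h at 37° C (14-point 1:3 curves, 10 mM top stock, 0.1% DMSO final, duplicates). HiBiT-ERα was read by lytic LgBiT luminescence, background-subtracted and normalized to DMSO. DC50 was taken from the half-maximal point of the first Hill component of a bell-shaped fit.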

SMILES	DC50
Cc1cc(F)ccc1[C@@H]1CC(F)(F)c2cc(O)ccc2[C@@H]1c1ccc(N2CCC(CN3CCN(c4ccc5c(c4)CN([C@H]4CCC(=O)NC4=O)C5=O)CC3)CC2)cc1 [Compound I-327, (S)-3-(5-(4-((1-(4-((1S,2R)-4,4-difluoro-2-(4-fluoro-2-methylphenyl)-6-hydroxy-1,2,3,4-tetrahydronaphthalen-1-yl)phenyl)piperidin-4-yl)methyl)piperazin-1-yl)-1-oxoisoindolin-2-yl)piperidine-2,6-dione]	≥ 10000 nM
O=C1CC[C@H](N2Cc3cc(N4CCN(CC5CCN(c6ccc([C@H]7c8ccc(O)cc8C(F)(F)C[C@H]7c7ccccc7)cc6F)CC5)CC4)ccc3C2=O)C(=O)N1 [Compound I-328, (S)-3-(5-(4-((1-(4-((1S,2R)-4,4-difluoro-6-hydroxy-2-phenyl-1,2,3,4-tetrahydronaphthalen-1-yl)-2-fluorophenyl)piperidin-4-yl)methyl)piperazin-1-yl)-1-oxoisoindolin-2-yl)piperidine-2,6-dione]	9 nM
O=C1CC[C@H](N2Cc3cc(N4CCN(CC5CCN(c6ccc([C@@H]7c8ccc(O)cc8C(F)(F)C[C@@H]7c7ccc(C(F)(F)F)cc7)cc6)CC5)CC4)ccc3C2=O)C(=O)N1 [Compound I-329, (S)-3-(5-(4-((1-(4-((1R,2S)-4,4-difluoro-6-hydroxy-2-(4-(trifluoromethyl)phenyl)-1,2,3,4-tetrahydronaphthalen-1-yl)phenyl)piperidin-4-yl)methyl)piperazin-1-yl)-1-oxoisoindolin-2-yl)piperidine-2,6-dione]	0.92 nM
O=C1CC[C@H](N2Cc3cc(N4CCN(CC5CCN(c6ccc([C@H]7c8ccc(O)cc8C(F)(F)C[C@H]7c7ccc(C(F)(F)F)cc7)cc6)CC5)CC4)ccc3C2=O)C(=O)N1 [Compound I-330, (S)-3-(5-(4-((1-(4-((1S,2R)-4,4-difluoro-6-hydroxy-2-(4-(trifluoromethyl)phenyl)-1,2,3,4-tetrahydronaphthalen-1-yl)phenyl)piperidin-4-yl)methyl)piperazin-1-yl)-1-oxoisoindolin-2-yl)piperidine-2,6-dione]	35 nM
C[C@@H]1Cc2cc(O)ccc2[C@H](c2ccc(N3CCC(CN4CCN(c5ccc6c(c5)CN([C@H]5CCC(=O)NC5=O)C6=O)CC4)CC3)cc2)[C@@H]1c1ccccc1 [Compound I-333, (S)-3-(5-(4-((1-(4-((1S,2R,3R)-6-hydroxy-3-methyl-2-phenyl-1,2,3,4-tetrahydronaphthalen-1-yl)phenyl)piperidin-4-yl)methyl)piperazin-1-yl)-1-oxoisoindolin-2-yl)piperidine-2,6-dione]	21 nM
C[C@H]1Cc2cc(O)ccc2[C@H](c2ccc(N3CCC(CN4CCN(c5ccc6c(c5)CN([C@H]5CCC(=O)NC5=O)C6=O)CC4)CC3)cc2)[C@@H]1c1ccccc1 [Compound I-334, (S)-3-(5-(4-((1-(4-((1S,2R,3S)-6-hydroxy-3-methyl-2-phenyl-1,2,3,4-tetrahydronaphthalen-1-yl)phenyl)piperidin-4-yl)methyl)piperazin-1-yl)-1-oxoisoindolin-2-yl)piperidine-2,6-dione]	28 nM
[2H]c1c([2H])c([2H])c([C@H]2CC(F)(F)c3cc(O)ccc3[C@H]2c2ccc(N3CCC(CN4CCN(c5ccc6c(c5)CN([C@H]5CCC(=O)NC5=O)C6=O)CC4)CC3)cc2)c([2H])c1[2H] [Compound I-335, (S)-3-(5-(4-((1-(4-((1R,2S)-4,4-difluoro-6-hydroxy-2-(phenyl-d5)-1,2,3,4-tetrahydronaphthalen-1-yl)phenyl)piperidin-4-yl)methyl)piperazin-1-yl)-1-oxoisoindolin-2-yl)piperidine-2,6-dione]	0.36 nM
[2H]c1c([2H])c([2H])c([C@@H]2CC(F)(F)c3cc(O)ccc3[C@@H]2c2ccc(N3CCC(CN4CCN(c5ccc6c(c5)CN([C@H]5CCC(=O)NC5=O)C6=O)CC4)CC3)cc2)c([2H])c1[2H] [Compound I-336, (S)-3-(5-(4-((1-(4-((1S,2R)-4,4-difluoro-6-hydroxy-2-(phenyl-d5)-1,2,3,4-tetrahydronaphthalen-1-yl)phenyl)piperidin-4-yl)methyl)piperazin-1-yl)-1-oxoisoindolin-2-yl)piperidine-2,6-dione]	15 nM
O=C1CC[C@H](N2Cc3cc(N4CCN(CC5CCN(c6ccc([C@H]7c8ccc(O)cc8C(F)(F)C[C@H]7c7ccccc7)nc6)CC5)CC4)ccc3C2=O)C(=O)N1 [Compound I-337, (S)-3-(5-(4-((1-(6-((1R,2R)-4,4-difluoro-6-hydroxy-2-phenyl-1,2,3,4-tetrahydronaphthalen-1-yl)pyridin-3-yl)piperidin-4-yl)methyl)piperazin-1-yl)-1-oxoisoindolin-2-yl)piperidine-2,6-dione]	≥ 10000 nM
O=C1CC[C@H](N2Cc3cc(N4CCN(CC5CCN(c6ccc([C@H]7c8ccc(O)cc8C(F)(F)C[C@H]7c7ccccc7)cn6)CC5)CC4)ccc3C2=O)C(=O)N1 [Compound I-338, (3S)-3-[5-[4-[[1-[5-[(1R,2R)-4,4-difluoro-6-hydroxy-2-phenyl-tetralin-1-yl]-2-pyridyl]-4-piperidyl]methyl]piperazin-1-yl]-1-oxo-isoindolin-2-yl]piperidine-2,6-dione]	10 nM
[2H]c1cc2c(c([2H])c1O)C([2H])C[C@H](c1ccccc1)[C@@H]2c1ccc(N2CCC(CN3CCN(c4ccc5c(c4)CN([C@H]4CCC(=O)NC4=O)C5=O)CC3)CC2)cn1 (stereo partly shown) [Compound I-339]	0.31 nM
C[C@]1(c2ccccc2)CCc2cc(O)ccc2[C@@H]1c1ccc(N2CCC(CN3CCN(c4ccc5c(c4)CN([C@H]4CCC(=O)NC4=O)C5=O)CC3)CC2)cc1 [Compound I-344, (S)-3-(5-(4-((1-(4-((1R,2S)-6-hydroxy-2-methyl-2-phenyl-1,2,3,4-tetrahydronaphthalen-1-yl)phenyl)piperidin-4-yl)methyl)piperazin-1-yl)-1-oxoisoindolin-2-yl)piperidine-2,6-dione]	84 nM

Results, then the compound that gave them:

DC50	SMILES
≥ 10000 nM	O=C1CC[C@H](N2Cc3cc(N4CCN(CC5CCN(c6ccc([C@H]7c8ccc(O)cc8CO[C@H]7c7ccc(F)cc7)cc6)CC5)CC4)ccc3C2=O)C(=O)N1 [Compound I-346, (S)-3-(5-(4-((1-(4-((3R,4S)-3-(4-fluorophenyl)-7-hydroxyisochroman-4-yl)phenyl)piperidin-4-yl)methyl)piperazin-1-yl)-1-oxoisoindolin-2-yl)piperidine-2,6-dione]
0.18 nM	O=C1CC[C@H](N2Cc3cc(N4CCN(CC5CCN(c6ccc([C@@H]7c8ccc(O)cc8CO[C@@H]7c7ccccc7F)cc6)CC5)CC4)ccc3C2=O)C(=O)N1 [Compound I-347, (S)-3-(5-(4-((1-(4-((3S,4R)-3-(2-fluorophenyl)-7-hydroxyisochroman-4-yl)phenyl)piperidin-4-yl)methyl)piperazin-1-yl)-1-oxoisoindolin-2-yl)piperidine-2,6-dione]
≥ 10000 nM	O=C1CC[C@H](N2Cc3cc(N4CCN(CC5CCN(c6ccc([C@H]7c8ccc(O)cc8CO[C@H]7c7ccccc7F)cc6)CC5)CC4)ccc3C2=O)C(=O)N1 [Compound I-348, (S)-3-(5-(4-((1-(4-((3R,4S)-3-(2-fluorophenyl)-7-hydroxyisochroman-4-yl)phenyl)piperidin-4-yl)methyl)piperazin-1-yl)-1-oxoisoindolin-2-yl)piperidine-2,6-dione]
0.39 nM	O=C1CC[C@H](N2Cc3cc(N4CCN(CC5CCN(c6ccc([C@@H]7c8ccc(O)cc8CO[C@@H]7c7ccc(C(F)(F)F)cc7)cc6)CC5)CC4)ccc3C2=O)C(=O)N1 [Compound I-349]
20 nM	O=C1CC[C@H](N2Cc3cc(N4CCN(CC5CCN(c6ccc([C@H]7c8ccc(O)cc8CO[C@H]7c7ccc(C(F)(F)F)cc7)cc6)CC5)CC4)ccc3C2=O)C(=O)N1 [Compound I-350, (S)-3-(5-(4-((1-(4-((3R,4S)-7-hydroxy-3-(4-(trifluoromethyl)phenyl)isochroman-4-yl)phenyl)piperidin-4-yl)methyl)piperazin-1-yl)-1-oxoisoindolin-2-yl)piperidine-2,6-dione]
0.2 nM	CC(C)c1ccccc1[C@H]1OCc2cc(O)ccc2[C@H]1c1ccc(N2CCC(CN3CCN(c4ccc5c(c4)CN([C@H]4CCC(=O)NC4=O)C5=O)CC3)CC2)cc1 [Compound I-351, (S)-3-(5-(4-((1-(4-((3S,4R)-7-hydroxy-3-(2-isopropylphenyl)isochroman-4-yl)phenyl)piperidin-4-yl)methyl)piperazin-1-yl)-1-oxoisoindolin-2-yl)piperidine-2,6-dione]
17 nM	CC(C)c1ccccc1[C@@H]1OCc2cc(O)ccc2[C@@H]1c1ccc(N2CCC(CN3CCN(c4ccc5c(c4)CN([C@H]4CCC(=O)NC4=O)C5=O)CC3)CC2)cc1 [Compound I-352, (S)-3-(5-(4-((1-(4-((3R,4S)-7-hydroxy-3-(2-isopropylphenyl)isochroman-4-yl)phenyl)piperidin-4-yl)methyl)piperazin-1-yl)-1-oxoisoindolin-2-yl)piperidine-2,6-dione]
